Experimental data published in patent US9718790B2, “Triazine derivative and pharmaceutical composition having an analgesic activity comprising the same” (SHIONOGI & CO., LTD., priority 2010, dated 2017).

Tests used:
[1] = tested on: partial sciatic nerve ligation model in rats; test: Analgesic effect in a Seltzer model, Evaluation (2): mechanical hyperalgesia, analgesy meter paw pressure test; type: in vivo; conditions: rat, oral administration, 10 mg/kg, at 3 hours
Description: Rats were anaesthetized using isoflurane/O2 inhalation anaesthesia. After induction of anesthesia, the left thigh was shaved. An incision was made in the skin just below the hip bone. The muscle was bluntly dissected to expose the sciatic nerve. One third (⅓) to one half (½) of the sciatic nerve thickness was tightly ligated and the wound was closed. The right thigh is used as a sham-operated control. The right thigh undergoes an identical procedure with the left hind limb, however, the sciatic nerve is not manipulated or ligated.
Mechanical hyperalgesia was eavaluated using an analgesy meter. Two weeks after nerve ligation, the paw pressure test was performed using an analgesy meter (stimulus pressure increased 16 g per second) to obtain paw withdrawal thresholds (PWT). Measurements were made on both sides of the hind paw and to obtain pre-dose PWT. The rats showing the threshold change from 60 to 90 g (in nerve ligated side) and 100 to 175 g (in sham operated side) were used in the experiments. On the day before the experiment, the rats have their hind paws set on the apparatus to familiarize them with the test procedure. […] Post-dose PWT of the right and left hind paws were measured at approximately 1 to 5 hours after drug administration. Percent reversal of mechanical hyperalgesia for each rat was calculated using the following formula. […]

rat model of cystitis = test: Evaluation of the urinary function in a rat model of cystitis (acetic acid infusion, cystometry); type: in vivo; conditions: oral administration of 30 mg/kg
Description: A rat was fixed in the supine position after being given anesthesia through the inhalation of 2% isoflurane (Anesthetic background: Nitrous oxide: Oxygen=7:3). A midline incision was made in its abdomen to expose the bladder. A cannula (made by) processing a polyethylene tube (PE-50: Becton Dickinson)) was inserted through a small incision on top of the bladder and fixed to create a bladder fistula. The other end of the cannula was led through the hypodermal tissue to the back, and the muscular coat and skin were sutured. The cannula, which was led to the back, was protected with a stainless spring in the middle and connected to the cannula swivel. […]
Three days after the acetic acid infusion, the other end of the cannula inserted into the bladder was connected to a T shape stopcock and then the intravesical pressure was recorded continuously using a pressure amplifier while infusing warmed normal saline solution at a rate of 3.0 mL/hr from one side and through a pressure transducer on the other side. The baseline of the intravesical pressure was measured (for approximately 40 minutes) after a measurement for stable duration (for approximately 20 minutes). After that, a vehicle, positive control compound or test compound wore administered, and the value after administration was measured for approximately 120 minutes. […]

CYP2C9 = CYP2C9 (Homo sapiens (Human), UniProt P11712); test: CYP inhibition test, pooled human hepatic microsome, tolbutamide methyl-hydroxylation; type: in vitro ADME; conditions: substrate tolbutamide
Method: (§1) Using commercially available pooled human hepatic microsome, and employlng, as markers, 7-ethoxyresorufin O-deethylation (CYP1A2), tolbutamide methyl-hydroxylation (CYP2C9), mephenyloin 4′-hydroxylation (CYP2C19), dextromethorphan O-demethylation (CYP2D6), and terfenedine hydroxylation as typical substrate metabolism reactions of human main five CYP enzyme forms (CYP1A2, 2C9, 2C19, 2D6, 3A4), an inhibitory degree of each metabolite production amount by a test compound was assessed.
(§2) The reaction conditions were as follows: substrate, 0.5 μmol/L ethoxyresorufin (CYP1A2), 100 μmol/L tolbutamide (CYP2C9), 50 μmol/L S-mephenitoin (CYP2C19), 5 μmol/L dextromethorphan (CYP2D6), 1 μmol/L terfenedine (CYP3A4) reaction time, 15 minutes; reaction temperature, 37° C; enzyme, pooled human hepatic microsome 0.2 mg protein/mL; test drug concentration, 1.0, 5.0, 10, 20 μmol/L (four points).
(§3) Each five kinds of substrates, human hepatic microsome, or a test drug in 50 mmol/L Hepes buffer as a reaction solution was added to a 96-well plate at the composition as described above, NADPH, as a cofactor was added to initiate metabolism reactions as markers and, after the incubation at 37° C. for 15 minutes, a methanol/acetonitrile=1/1 (v/v) solution was added to stop the reaction. After the centrifugation at 3000 rpm for 15 minutes, resorufin (CYP1A2 metabolite) in the supernatant was quantified by a fluorescent multilabel counter and tributamide hydroxide (CYP2CP metabolite), mephenyloin 4′ hydroxide (CYP2C19 metabolite), […] (CYP2D6 metabolite), and terfenadine alcohol (CYP3A4 metabolite) were quantified by LC/MS/MS.

CYP1A2 = CYP1A2 (Homo sapiens (Human), UniProt P05177); test: CYP inhibition test, pooled human hepatic microsome, 7-ethoxyresorufin O-deethylation; type: in vitro ADME; conditions: substrate ethoxyresorufin
Method: as §1, §2, §3

CYP2C19 = CYP2C19 (Homo sapiens (Human), UniProt P33261); test: CYP inhibition test, pooled human hepatic microsome, mephenytoin 4'-hydroxylation; type: in vitro ADME; conditions: substrate S-mephenitoin
Method: as §1, §2, §3

CYP2D6 = CYP2D6 (Homo sapiens (Human), UniProt P10635); test: CYP inhibition test, pooled human hepatic microsome, dextromethorphan O-demethylation; type: in vitro ADME; conditions: substrate dextromethorphan
Method: as §1, §2, §3

CYP3A4 = CYP3A4 (Homo sapiens (Human), UniProt P08684); test: CYP inhibition test, pooled human hepatic microsome, terfenedine hydroxylation; type: in vitro ADME; conditions: substrate terfenedine
Method: as §1, §2, §3

[2] = Bioavailability (BA) test; type: in vivo; conditions: plasma; mice or SD rats, oral vs intravenous AUC
Method: (1) Animals: Mice or SD rats were used
(2) Breeding conditions: Mice or SD rats were allowed to freely take solid food and sterilized tap water.
(3) Dose and grouping: orally or intravenously administered at a predetermined dose; grouping was as follows (Dose depends one the compound) • Oral administration: 0.3 to 30 mg/kg (n=2 to 3) • Intravenous administration: 0.5 to 10 mg/kg (n=2 to 3)
(4) Preparation of dosing solution: for oral administration, in a solution or a suspension state: for intravenous administration, in a solubilized state
(5) Administration method: in oral administration, forcedly administer into ventriculus with oral probe; in intravenous administration, administer from caudal vein with a needle-equipped syringe
(6) Evaluation items: blood was collected over time, and the plasma concentration of drug was measured by LC/MS/MS
(7) Statistical analysis: regarding the transition of the plasma concentration or the present compound, the area under the plasma concentration-time curve (AUC) was calculated by non-linear least squares program WinNonlin (Registered trade name), and the bioavailability (BA) was calculated the AUCs of the oral administration group and intravenous administration group

serum = test: Protein binding test (equilibrium dialysis, serum); type: in vitro ADME; conditions: 37° C., 24 hours, 2 μg/mL
Method: The unbound fraction the present compound in serum was measured using serum of various species.
The reactive conditions are as follows: Evaluation method, Equilibrium dialysis; Reaction time, 24 hours; Reaction temperature, 37° C.; Concentration of the present compound, 2 μg/mL.
The test solution was added to each serum and the mixture was agitated to prepare the serum samples at the concentration mentioned above. Each serum sample was added into one side or the cell and phosphate buffered saline (PBS) was added into the other side to perform equilibrium dialysis at 37° C. for 24 hours. Then, the concentration of the compounds in the samples that were obtained from both sides was measured by LC/MS/MS.
(Result) The ratio of PBS concentration to serum concentration is expressed as unbound fraction.

human P2X3 receptor = human P2X3 receptor (Homo sapiens (Human), UniProt P56373); test: Evaluation of human P2X3 receptor inhibitory activity (Fluo-3 calcium fluorescence, FDSS 3000, ATP stimulation); type: cell-based; conditions: C6BU-1 cells stably expressing human P2X3 receptor;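 also: stimulus was 50 nM ATP with fluorescence followed for 3 min, and the response per well was peak post-ATP fluorescence divided by the reading at measurement start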
human P2X3 receptor, sequence (P56373 whole entry): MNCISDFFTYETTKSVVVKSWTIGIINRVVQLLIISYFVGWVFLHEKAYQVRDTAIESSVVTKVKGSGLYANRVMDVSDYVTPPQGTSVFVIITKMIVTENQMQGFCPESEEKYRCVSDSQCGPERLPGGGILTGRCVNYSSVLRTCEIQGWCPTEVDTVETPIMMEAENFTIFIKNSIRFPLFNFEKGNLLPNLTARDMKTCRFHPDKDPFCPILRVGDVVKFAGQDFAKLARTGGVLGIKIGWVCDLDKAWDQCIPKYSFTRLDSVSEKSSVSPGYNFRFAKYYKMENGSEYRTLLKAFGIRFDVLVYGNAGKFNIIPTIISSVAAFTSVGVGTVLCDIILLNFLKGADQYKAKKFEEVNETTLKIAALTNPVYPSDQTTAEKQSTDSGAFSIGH

CYP3A4, sequence (P08684 whole entry): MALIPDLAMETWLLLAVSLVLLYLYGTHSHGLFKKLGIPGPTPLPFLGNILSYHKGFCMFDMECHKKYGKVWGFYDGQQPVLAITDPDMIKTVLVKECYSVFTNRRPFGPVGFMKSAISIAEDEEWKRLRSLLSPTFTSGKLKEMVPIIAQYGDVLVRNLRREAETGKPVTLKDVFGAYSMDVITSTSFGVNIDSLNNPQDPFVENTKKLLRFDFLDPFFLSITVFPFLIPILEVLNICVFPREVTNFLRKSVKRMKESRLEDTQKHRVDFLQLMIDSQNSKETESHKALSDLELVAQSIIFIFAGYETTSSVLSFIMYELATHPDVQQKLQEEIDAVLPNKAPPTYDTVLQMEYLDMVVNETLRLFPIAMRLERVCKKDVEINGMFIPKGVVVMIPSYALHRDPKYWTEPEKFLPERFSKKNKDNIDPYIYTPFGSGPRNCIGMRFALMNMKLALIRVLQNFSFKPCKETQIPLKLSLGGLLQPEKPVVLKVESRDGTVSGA
CYP1A2, sequence (P05177 whole entry): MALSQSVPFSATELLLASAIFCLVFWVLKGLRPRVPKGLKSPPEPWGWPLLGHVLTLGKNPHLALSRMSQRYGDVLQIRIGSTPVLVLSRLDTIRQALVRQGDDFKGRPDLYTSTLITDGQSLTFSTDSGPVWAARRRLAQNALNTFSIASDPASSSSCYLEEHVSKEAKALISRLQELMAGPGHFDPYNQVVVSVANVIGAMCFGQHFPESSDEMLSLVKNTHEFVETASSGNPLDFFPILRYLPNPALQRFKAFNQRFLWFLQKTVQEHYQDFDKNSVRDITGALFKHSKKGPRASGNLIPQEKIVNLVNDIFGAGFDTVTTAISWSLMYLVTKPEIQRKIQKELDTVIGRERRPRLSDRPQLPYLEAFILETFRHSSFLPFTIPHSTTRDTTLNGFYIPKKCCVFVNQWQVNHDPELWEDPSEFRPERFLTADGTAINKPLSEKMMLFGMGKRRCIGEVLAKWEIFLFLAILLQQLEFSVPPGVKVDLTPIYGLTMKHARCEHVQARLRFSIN
CYP2C9, sequence (P11712 whole entry): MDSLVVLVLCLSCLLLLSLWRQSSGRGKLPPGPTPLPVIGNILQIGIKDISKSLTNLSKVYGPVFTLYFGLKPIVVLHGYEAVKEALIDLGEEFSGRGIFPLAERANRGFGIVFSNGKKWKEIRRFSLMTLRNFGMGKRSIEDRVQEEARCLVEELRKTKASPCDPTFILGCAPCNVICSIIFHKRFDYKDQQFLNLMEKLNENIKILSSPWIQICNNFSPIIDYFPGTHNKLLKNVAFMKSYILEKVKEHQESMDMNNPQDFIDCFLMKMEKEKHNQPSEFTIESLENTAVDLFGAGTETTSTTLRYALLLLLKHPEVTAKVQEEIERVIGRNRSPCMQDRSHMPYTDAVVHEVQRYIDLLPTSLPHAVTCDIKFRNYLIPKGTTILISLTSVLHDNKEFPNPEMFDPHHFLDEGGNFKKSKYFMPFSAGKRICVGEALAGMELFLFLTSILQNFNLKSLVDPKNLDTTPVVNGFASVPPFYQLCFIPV
CYP2C19, sequence (P33261 whole entry): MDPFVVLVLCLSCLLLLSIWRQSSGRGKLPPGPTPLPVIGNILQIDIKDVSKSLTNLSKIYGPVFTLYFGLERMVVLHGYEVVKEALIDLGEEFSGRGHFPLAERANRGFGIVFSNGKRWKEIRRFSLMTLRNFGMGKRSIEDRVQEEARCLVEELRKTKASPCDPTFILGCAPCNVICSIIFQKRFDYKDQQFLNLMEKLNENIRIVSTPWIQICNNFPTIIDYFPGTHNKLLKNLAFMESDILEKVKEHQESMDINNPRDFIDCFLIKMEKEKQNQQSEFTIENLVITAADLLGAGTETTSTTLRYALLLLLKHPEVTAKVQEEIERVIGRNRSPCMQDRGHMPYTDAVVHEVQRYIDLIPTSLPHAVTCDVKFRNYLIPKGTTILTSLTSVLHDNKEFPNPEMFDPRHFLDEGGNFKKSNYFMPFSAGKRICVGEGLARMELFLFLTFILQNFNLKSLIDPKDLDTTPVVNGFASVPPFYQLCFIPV
CYP2D6, sequence (P10635 whole entry): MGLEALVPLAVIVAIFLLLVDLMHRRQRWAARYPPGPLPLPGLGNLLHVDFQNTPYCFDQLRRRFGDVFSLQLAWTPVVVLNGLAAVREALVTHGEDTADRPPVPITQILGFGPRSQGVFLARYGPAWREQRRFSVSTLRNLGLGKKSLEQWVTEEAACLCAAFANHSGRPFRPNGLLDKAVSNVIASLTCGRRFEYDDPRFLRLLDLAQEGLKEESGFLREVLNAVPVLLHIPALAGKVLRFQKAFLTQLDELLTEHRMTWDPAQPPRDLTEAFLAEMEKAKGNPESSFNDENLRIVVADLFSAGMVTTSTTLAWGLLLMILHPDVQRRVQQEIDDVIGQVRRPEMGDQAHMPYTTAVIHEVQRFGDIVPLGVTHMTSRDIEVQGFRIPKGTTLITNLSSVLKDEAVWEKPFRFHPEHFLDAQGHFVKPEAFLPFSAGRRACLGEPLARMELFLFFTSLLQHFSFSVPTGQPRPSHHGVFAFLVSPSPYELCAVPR

CC(C)Oc1ccc(Nc2nc(=O)n(CC(C)(C)C(=O)O)c(=O)n2Cc2ccc(Cl)cc2)cc1F [Compound I-0364]
analgesic effect, percent reversal of mechanical hyperalgesia [1]: 56.7 % reversal
improvements in the urinary function in the voided volume per urination (rat model of cystitis): 88%
improvements in the urinary function in the voiding interval (rat model of cystitis): 74.8%

COC(=O)[C@@H](C)Cn1c(=O)[nH]/c(=N\c2cccc(C3C=CCCC3)c2)n(Cc2ccc(C)cc2)c1=O (some centres unmarked) [Compound I-1079]
IC50 (CYP2C9): > 20 µM
IC50 (CYP1A2): > 20 µM
IC50 (CYP2C19): > 20 µM
IC50 (CYP2D6): > 20 µM
IC50 (CYP3A4): > 20 µM
bioavailability [2]: > 99.9%

CNC(=O)c1cc(Oc2ccc(/N=c3\[nH]c(=O)n(C)c(=O)n3Cc3ccc(Cl)cc3)cc2)ccn1 [Compound I-2011]
unbound fraction (ratio of PBS concentration to serum concentration) (serum): 0.5%
IC50 (human P2X3 receptor): 0.01 µM
